# The source made the active and inactive calls. The calls are words filed in the database; no cut-off is given here.
# System: 3T3-L1
# Test: Anti-adipogenic activity against mouse 3T3-L1 cells assessed as decrease in triglyceride level at 1 uM by Oil Red O staining based spectroscopic analysis
# Assay type: functional
# Parameters: scale not given: the % may be the effect or the level left
# Settings: not given
row,Structure (SMILES),Activity [%]
1,C=C(C)[C@@]12OC3(c4ccccc4)O[C@@H]1[C@@H]1[C@@H](Cl)[C@@](O)(CO)[C@@H](O)[C@]4(O)C(=O)C(C)=C[C@H]4[C@@]1(O3)[C@H](C)[C@H]2OC(C)=O,>50
2,C=C(C)[C@@]12OC3(/C=C/C=C/CCCCC)O[C@@H]1[C@@H]1[C@@H]4O[C@]4(COC(C)=O)[C@@H](OC(C)=O)[C@]4(O)C(=O)C(C)=C[C@H]4[C@@]1(O3)[C@H](C)[C@H]2OC(C)=O,>50
3,C=C(C)[C@@]12OC3(/C=C/C=C/CCCCC)O[C@@H]1[C@@H]1[C@@H]4O[C@]4(COC(C)=O)[C@@H](O)[C@]4(O)C(=O)C(C)=C[C@H]4[C@@]1(O3)[C@H](C)[C@H]2OC(C)=O,>50
4,C=C(C)[C@@]12OC3(/C=C/C=C/CCCCC)O[C@@H]1[C@@H]1[C@@H]4O[C@]4(CO)[C@@H](O)[C@]4(O)C(=O)C(C)=C[C@H]4[C@@]1(O3)[C@H](C)[C@H]2OC(=O)c1ccccc1,>50
5,C=C(C)[C@@]12OC3(c4ccccc4)O[C@@H]1[C@@H]1[C@@H]4O[C@]4(COC(C)=O)[C@@H](O)[C@]4(O)C(=O)C(C)=C[C@H]4[C@@]1(O3)[C@H](C)[C@H]2OC(C)=O,>50
6,C=C(C)[C@@]12OC3(c4ccccc4)O[C@@H]1[C@@H]1[C@@H](Cl)[C@@](O)(COC(=O)c4ccccc4)[C@@H](O)[C@]4(O)C(=O)C(C)=C[C@H]4[C@@]1(O3)[C@H](C)[C@H]2OC(C)=O,>50
7,C=C(C)[C@@]12OC3(c4ccccc4)O[C@@H]1[C@@H]1[C@@H]4O[C@]4(COC(=O)c4ccccc4)[C@@H](O)[C@]4(O)C(=O)C(C)=C[C@H]4[C@@]1(O3)[C@H](C)[C@H]2OC(=O)c1ccccc1,>50
8,C=C(C)[C@@]12OC3(c4ccccc4)O[C@@H]1[C@@H]1[C@@H]4O[C@]4(CO)[C@@H](O)[C@]4(O)C(=O)C(C)=C[C@H]4[C@@]1(O3)[C@H](C)[C@H]2OC(=O)CC,>50
9,C=C(C)[C@@]12OC3(c4ccccc4)O[C@@H]1[C@@H]1[C@@H]4O[C@]4(CO)[C@@H](O)[C@]4(O)C(=O)C(C)=C[C@H]4[C@@]1(O3)[C@H](C)[C@H]2OC(C)=O,>50
10,C=C(C)[C@@]12OC3(c4ccccc4)O[C@@H]1[C@@H]1[C@@H]4O[C@]4(CO)[C@@H](O)[C@]4(O)C(=O)C(C)=C[C@H]4[C@@]1(O3)[C@H](C)[C@H]2OC(=O)CCC,>50
11,C=C(C)[C@@]12OC3(/C=C/C=C/CCCCC)O[C@@H]1[C@@H]1[C@@H]4O[C@]4(CO)[C@@H](O)[C@]4(O)C(=O)C(C)=C[C@H]4[C@@]1(O3)[C@H](C)[C@H]2OC(C)=O,>50
12,C=C(C)[C@@]12OC3(c4ccccc4)O[C@@H]1[C@@H]1[C@@H](Cl)[C@@](O)(CO)[C@@H](O)[C@]4(O)C(=O)C(C)=C[C@H]4[C@@]1(O3)[C@H](C)[C@H]2OC(=O)c1ccccc1,>50
13,C=C(C)[C@@]12OC3(c4ccccc4)O[C@@H]1[C@@H]1[C@H](O)[C@](Cl)(CO)[C@@H](O)[C@]4(O)C(=O)C(C)=C[C@H]4[C@@]1(O3)[C@H](C)[C@H]2OC(=O)c1ccccc1,>50
14,C=C(C)[C@@]12OC3(/C=C/C=C/CCCCC)O[C@@H]1[C@@H]1[C@@H]4O[C@]4(COC(C)=O)[C@@H](O)[C@]4(O)C(=O)C(C)=C[C@H]4[C@@]1(O3)[C@H](C)[C@H]2OC(=O)c1ccccc1,>50
15,C=C(C)[C@@]12OC3(/C=C/C=C/CCCCC)O[C@@H]1[C@@H]1[C@@H]4O[C@]4(CO)[C@@H](O)[C@]4(O)C(=O)C(C)=C[C@H]4[C@@]1(O3)[C@H](C)[C@H]2OC(=O)CCC,>50
16,C=C(C)[C@@]12OC3(c4ccccc4)O[C@@H]1[C@@H]1[C@@H]4O[C@]4(COC(C)=O)[C@@H](O)[C@]4(O)C(=O)C(C)=C[C@H]4[C@@]1(O3)[C@H](C)[C@H]2OC(=O)c1ccccc1,>50
17,C=C(C)[C@@]12OC3(/C=C/C=C/CCCCC)O[C@@H]1[C@@H]1[C@@H]4O[C@]4(COC(=O)c4ccccc4)[C@@H](O)[C@]4(O)C(=O)C(C)=C[C@H]4[C@@]1(O3)[C@H](C)[C@H]2OC(C)=O,>50
18,C=C(C)[C@@]12OC3(c4ccccc4)O[C@@H]1[C@@H]1[C@H](O)[C@](Cl)(CO)[C@@H](O)[C@]4(O)C(=O)C(C)=C[C@H]4[C@@]1(O3)[C@H](C)[C@H]2OC(C)=O,>50
19,C=C(C)[C@@]12OC3(c4ccccc4)O[C@@H]1[C@@H]1[C@@H]4O[C@]4(CO)[C@@H](O)[C@]4(O)C(=O)[C@@H](C)C[C@H]4[C@@]1(O3)[C@H](C)[C@H]2OC(=O)c1ccccc1,>50
20,C=C(C)[C@@]12OC3(c4ccccc4)O[C@@H]1[C@@H]1[C@@H]4O[C@]4(COC(=O)c4ccccc4)[C@@H](O)[C@]4(O)C(=O)C(C)=C[C@H]4[C@@]1(O3)[C@H](C)[C@H]2OC(C)=O,>50
21,C=C(C)[C@@]12OC3(/C=C/C=C/CCCCC)O[C@@H]1[C@@H]1[C@@H]4O[C@]4(COC(C)=O)[C@@H](OC(C)=O)[C@]4(O)C(=O)C(C)=C[C@H]4[C@@]1(O3)[C@H](C)[C@H]2OC(=O)c1ccccc1,>50
22,C=C(C)[C@@]12OC3(c4ccccc4)O[C@@H]1[C@@H]1[C@@H]4O[C@]4(CO)[C@@H](O)[C@]4(O)C(=O)C(C)=C[C@H]4[C@@]1(O3)[C@H](C)[C@H]2OC(=O)c1ccccc1,>50

# System: 3T3-L1
# Test: Anti-adipogenic activity against mouse 3T3-L1 cells assessed as decrease in triglyceride level incubated for […] by Oil Red O staining based microscopic analysis
# Assay type: functional, cell-based
# Settings: not given
row,Structure (SMILES),IC50 [µM]
1,C=C(C)[C@@]12OC3(c4ccccc4)O[C@@H]1[C@@H]1[C@H](O)[C@](Cl)(COC(=O)c4ccccc4)[C@@H](OC(=O)CCCCCNC(=O)CCCC[C@@H]4SC[C@@H]5NC(=O)N[C@@H]54)[C@]4(O)C(=O)C(C)=C[C@H]4[C@@]1(O3)[C@H](C)[C@H]2OC(C)=O,1.05

# Molecular target: Regulatory-associated protein of mTOR (Mus musculus) (UniProt Q8K4Q0)
# Sequence (Q8K4Q0 whole entry, looked up): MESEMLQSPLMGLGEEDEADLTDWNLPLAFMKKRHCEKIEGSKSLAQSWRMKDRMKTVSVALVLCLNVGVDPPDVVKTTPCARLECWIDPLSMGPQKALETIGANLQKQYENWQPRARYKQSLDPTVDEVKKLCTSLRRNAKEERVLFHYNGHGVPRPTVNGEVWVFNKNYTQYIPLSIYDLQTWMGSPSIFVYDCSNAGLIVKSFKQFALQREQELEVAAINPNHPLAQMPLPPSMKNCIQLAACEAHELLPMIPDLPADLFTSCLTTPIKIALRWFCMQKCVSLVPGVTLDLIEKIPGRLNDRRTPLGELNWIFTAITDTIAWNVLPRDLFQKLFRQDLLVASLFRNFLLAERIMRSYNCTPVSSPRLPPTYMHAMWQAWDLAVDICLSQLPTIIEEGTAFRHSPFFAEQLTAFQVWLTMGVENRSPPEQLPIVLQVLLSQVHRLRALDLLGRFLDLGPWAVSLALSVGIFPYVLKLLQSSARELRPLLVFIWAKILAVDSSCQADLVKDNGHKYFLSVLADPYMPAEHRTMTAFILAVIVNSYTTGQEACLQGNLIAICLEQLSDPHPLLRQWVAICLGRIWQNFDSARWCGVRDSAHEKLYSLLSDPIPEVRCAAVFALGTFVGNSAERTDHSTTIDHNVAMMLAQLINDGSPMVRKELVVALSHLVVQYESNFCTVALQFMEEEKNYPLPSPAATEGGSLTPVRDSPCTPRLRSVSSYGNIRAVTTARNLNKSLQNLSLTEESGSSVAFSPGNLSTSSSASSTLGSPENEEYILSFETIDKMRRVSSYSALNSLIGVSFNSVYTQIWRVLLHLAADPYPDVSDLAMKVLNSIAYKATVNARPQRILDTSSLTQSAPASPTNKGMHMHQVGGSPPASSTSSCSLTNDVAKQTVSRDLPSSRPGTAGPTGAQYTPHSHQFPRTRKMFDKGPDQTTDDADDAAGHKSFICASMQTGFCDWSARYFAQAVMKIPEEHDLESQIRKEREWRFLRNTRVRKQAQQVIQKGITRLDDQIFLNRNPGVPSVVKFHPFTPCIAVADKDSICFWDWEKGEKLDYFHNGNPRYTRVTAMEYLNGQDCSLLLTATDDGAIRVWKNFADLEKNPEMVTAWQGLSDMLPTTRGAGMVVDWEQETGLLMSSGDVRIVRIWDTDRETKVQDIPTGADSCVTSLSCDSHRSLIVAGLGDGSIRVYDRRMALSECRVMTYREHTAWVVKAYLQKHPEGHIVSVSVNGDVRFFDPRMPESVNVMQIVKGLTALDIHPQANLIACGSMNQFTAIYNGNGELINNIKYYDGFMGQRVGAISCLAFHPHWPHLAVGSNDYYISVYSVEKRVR
# Test: Binding affinity to Raptor in mouse 3T3-L1 cells at 1 to 10 uM incubated overnight by pull-down assay
# Settings: dose 1-10 µM
row,Activity,Structure (SMILES)
1,Active,C=C(C)[C@@]12OC3(c4ccccc4)O[C@@H]1[C@@H]1[C@H](O)[C@](Cl)(COC(=O)c4ccccc4)[C@@H](OC(=O)CCCCCNC(=O)CCCC[C@@H]4SC[C@@H]5NC(=O)N[C@@H]54)[C@]4(O)C(=O)C(C)=C[C@H]4[C@@]1(O3)[C@H](C)[C@H]2OC(C)=O

# From ChEMBL document CHEMBL5380850, “Discovery of the First Raptor (Regulatory-Associated Protein of mTOR) Inhibitor as a New Type of Antiadipogenic Agent” (J Med Chem, 2023)
